Measured values reported in patent publication US12121522B2, “Methods of treating cancer with an mTOR inhibitor” (Revolution Medicines, Inc., priority 2022, dated 2024).
Several values for one entry are separate records, joined by “and”; a condition that tells them apart may be missing. Identical values can stand only once.

Legend:
[1] = Clinical safety (TEAEs, TRAEs, SAEs, DLTs), study RMC-5552-001
From the text: RMC-5552 is currently being evaluated as a monotherapy in a FIH, dose-escalation, Phase 1/1b study (RMC-5552-001) in adult subjects with advanced relapsed/refractory solid tumors (see Example 3 for additional study protocol details.) The purpose of this study is to evaluate safety, tolerability, preliminary efficacy, PK, and pharmacodynamics of RMC-5552 monotherapy. The primary objective is to characterize the safety and tolerability of RMC-5552 monotherapy and to define the MTD and the Recommended Phase 2 Dose (RP2DS) and schedule for RMC-5552 monotherapy in subjects with relapsed/refractory solid tumors.
Adverse events (AEs) were based on the Medical Dictionary for Regulatory Activities (MedDRA) preferred terms and included the grouped preferred term of stomatitis/mucositis using mucosal inflammation, oral pain, and stomatitis. […] Of note, the grouped term of stomatitis/mucositis comprised events of (based on MedDRA PT) mucosal inflammation, oral pain, and stomatitis.
In the Dose-Escalation Phase, assessment of safety and tolerability will be the primary endpoints and will be directly measured by the incidence of dose-limiting toxicities (DLTs), treatment-emergent adverse events (TEAEs), and serious adverse events (SAEs). The starting dose of RMC-5552 will be 1.6 mg once weekly (QW) via intravenous (IV) infusion. The first cycle of treatment (i.e., first 21 days after treatment initiation) constitutes the DLT evaluation period.
A DLT is defined as a toxicity that is considered at least possibly related to study intervention, occurs within the first 21 days of treatment initiation (i.e., during Cycle 1), and meets at least 1 of the following criteria (with severity graded according to Common Terminology Criteria for Adverse Events [CTCAE] v5): […]

[2] = test system: HCC-1954 PIK3CA^H1047R breast cancer CDX; assay: HCC-1954 breast cancer xenograft; assay type: in vivo, mouse; conditions: two values
Experimental: (§1) The antitumor activity of RMC-5552 as a single agent against tumors predicted to be dependent on the mTOR pathway and/or bearing specific PI3K/mTOR pathway-activating mutations (i.e., PIK3CA^mut, phosphatase and tensin homolog [PTEN^LOF], or co-mutation of both and tuberous sclerosis complex [TSC^LOF]) was evaluated in selected CDX and/or PDX models
(§2) Table 1. RMC-5552 was administered IP once weekly at 1, 3, 10, and 30 mg/kg. In the breast cancer MCF7 PIK3CA^[…] model, a higher dose of 50 mg/kg once weekly and an alternate dose regimen of 30 mg/kg every 10 days were also evaluated.

HN009 HNSCC PDX = assay: HN009 HNSCC patient-derived xenograft; assay type: in vivo, mouse
From the text: FIGS. 3A-3B show Antitumor Activity of RMC-5552 in the HN009 Patient-Derived Xenograft Model of Human HNSCC Following Once-Weekly Administration. Abbreviations: ANOVA=analysis of variance; IP=intraperitoneal; QW=once weekly. […] Each animal represented as a separate bar. The number of tumor regressions out of total mice in that group is shown (tumor regression defined as >10% reduction in tumor volume from starting volume) in each group.
as §1, §2

[3] = 10 mg QW (2-hour infusion) 21-Day cycle (N = 5)

CO[C@H]1C[C@@H]2CC[C@@H](C)[C@@](O)(O2)C(=O)C(=O)N2CCCC[C@H]2C(=O)O[C@H]([C@H](C)C[C@@H]2CC[C@@H](OC(=O)NCCOCCOCCOCCOCCOCCOCCOCCOCCC(=O)N3CCc4cc(Cn5nc(-c6ccc7oc(N)nc7c6)c6c(N)ncnc65)ccc4C3)[C@H](OC)C2)C[C@@H](O)[C@H](C)/C=C(\C)[C@@H](O)[C@@H](OC)C(=O)[C@H](C)C[C@H](C)/C=C/C=C/C=C/1C [RMC-5552]
Treatment-emergent SAE Wound infection, number (%) of subjects ([1]; 1.6 mg QW 21-Day cycle (N = 2)): 0 subjects
Treatment-emergent SAE Wound infection, number (%) of subjects ([1]; 3 mg QW 21-Day cycle (N = 3)): 0 subjects
Treatment-emergent SAE Wound infection, number (%) of subjects ([1]; 6 mg QW 21-Day cycle (N = 12)): 0 subjects
Treatment-emergent SAE Wound infection, number (%) of subjects ([1]; 8 mg QW 21-Day cycle (N = 15)): 1 subjects
Treatment-emergent SAE Urinary tract infection, number (%) of subjects [1, 3]: 0 subjects
Treatment-emergent SAE Wound infection, number (%) of subjects [1, 3]: 0 subjects
Treatment-emergent SAE Wound infection, number (%) of subjects ([1]; 12 mg QW 21-Day cycle (N = 2)): 0 subjects
Treatment-emergent SAE Urinary tract infection, number (%) of subjects ([1]; Overall (N = 39)): 1 subjects
Treatment-emergent SAE Wound infection, number (%) of subjects ([1]; Overall (N = 39)): 1 subjects
DLT rate ([1]; human, in vivo): (3.0%)
Grade ≥3 TEAE: anemia ([1]; human, in vivo): 15.4%
Grade ≥3 TEAE: dysphagia ([1]; human, in vivo): 5.1%
Grade ≥3 TEAE: fatigue ([1]; human, in vivo): 5.1%
Grade ≥3 TEAE: rash (grouped term) ([1]; human, in vivo): 5.1%
Grade ≥3 TEAE: stomatitis/mucositis ([1]; human, in vivo): 10.3%
Grade ≥3 TEAE: urinary tract infection ([1]; human, in vivo): 5.1%
Number of subjects with any SAE (treatment-emergent) ([1]; human, in vivo): 14 subjects
SAEs assessed as treatment-related by investigators ([1]; human, in vivo): No SAEs were assessed as treatment-related
TEAE any grade: abdominal pain ([1]; human, in vivo): 20.5%
TEAE any grade: anemia ([1]; human, in vivo): 25.6%
TEAE any grade: decreased appetite ([1]; human, in vivo): 43.6%
TEAE any grade: diarrhea ([1]; human, in vivo): 23.10%
TEAE any grade: dyspnea ([1]; human, in vivo): 28.20%
TEAE any grade: fatigue ([1]; human, in vivo): 61.5%
TEAE any grade: headache ([1]; human, in vivo): 20.5%
TEAE any grade: nausea ([1]; human, in vivo): 41.0%
TEAE any grade: rash (grouped term) ([1]; human, in vivo): 28.20%
TEAE any grade: vomiting ([1]; human, in vivo): 30.80%
TRAE: decreased appetite ([1]; human, in vivo): 25%
TRAE: diarrhea ([1]; human, in vivo): 25%
TRAE: fatigue ([1]; human, in vivo): 25%
TRAE: mucositis/stomatitis ([1]; human, in vivo): 35%
TRAE: nausea ([1]; human, in vivo): 25%
Treatment-emergent SAE Acute kidney injury, number (%) of subjects ([1]; human, in vivo): 1 subjects
Treatment-emergent SAE Anaemia, number (%) of subjects ([1]; human, in vivo): 1 subjects
Treatment-emergent SAE Anemia along with occlusion, number (%) of subjects ([1]; human, in vivo): 1 subjects
Treatment-emergent SAE Atrial fibrillation, number (%) of subjects ([1]; human, in vivo): 1 subjects
Treatment-emergent SAE Dehydration, number (%) of subjects ([1]; human, in vivo): 1 subjects
Treatment-emergent SAE Dyspnea, number (%) of subjects ([1]; human, in vivo): 1 subjects
Treatment-emergent SAE Embolism, number (%) of subjects ([1]; human, in vivo): 1 subjects
Treatment-emergent SAE Face Oedema, number (%) of subjects ([1]; human, in vivo): 1 subjects
Treatment-emergent SAE Failure to Thrive, number (%) of subjects ([1]; human, in vivo): 1 subjects
Treatment-emergent SAE Fatigue, number (%) of subjects ([1]; human, in vivo): 1 subjects
Treatment-emergent SAE Hypotension, number (%) of subjects ([1]; human, in vivo): 1 subjects
Treatment-emergent SAE Large intestinal obstruction, number (%) of subjects ([1]; human, in vivo): 1 subjects
Treatment-emergent SAE Lower gastrointestinal hemorrhage, number (%) of subjects ([1]; human, in vivo): 1 subjects
Treatment-emergent SAE Oedema peripheral, number (%) of subjects ([1]; human, in vivo): 1 subjects
Treatment-emergent SAE Pain in extremity, number (%) of subjects ([1]; human, in vivo): 1 subjects
Treatment-emergent SAE Pleural effusion, number (%) of subjects ([1]; human, in vivo): 1 subjects
Treatment-emergent SAE Pneumonia aspiration, number (%) of subjects ([1]; human, in vivo): 1 subjects
Treatment-emergent SAE Pneumonia, number (%) of subjects ([1]; human, in vivo): 1 subjects
Treatment-emergent SAE Pneumothorax, number (%) of subjects ([1]; human, in vivo): 1 subjects
Treatment-emergent SAE Rash maculopapular, number (%) of subjects ([1]; human, in vivo): 1 subjects
Treatment-emergent SAE Rectourethral fistula, number (%) of subjects ([1]; human, in vivo): 1 subjects
Treatment-emergent SAE Small intestinal obstruction, number (%) of subjects ([1]; human, in vivo): 1 subjects
Treatment-emergent SAE Small intestinal perforation, number (%) of subjects ([1]; human, in vivo): 1 subjects
Treatment-emergent SAE Stomatitis/mucositis, number (%) of subjects ([1]; human, in vivo): 1 subjects
Treatment-emergent SAE Vascular occlusion, number (%) of subjects ([1]; human, in vivo): 1 subjects
dose-limiting toxicities ([1]; human, in vivo): no dose-limiting toxicities
drug-related adverse event: decreased appetite ([1]; human, in vivo): 32%
drug-related adverse event: fatigue ([1]; human, in vivo): 41%
drug-related adverse event: nausea ([1]; human, in vivo): 36%
drug-related adverse event: stomatitis/mucositis ([1]; human, in vivo): 41%
drug-related adverse event: vomiting ([1]; human, in vivo): 23%
event of interest: edema peripheral ([1]; human, in vivo): 10.3%
event of interest: hyperglycemia ([1]; human, in vivo): 7.7%
event of interest: rash maculo-papular ([1]; human, in vivo): 17.9%
median duration of resolved stomatitis/mucositis events ([1]; human, in vivo): 12.0 days
median time to first onset of stomatitis/mucositis ([1]; human, in vivo): 12.5 days
n/N (DLT rate) ([1]; human, in vivo): 1/33
related Grade 4 or 5 adverse events ([1]; human, in vivo): No related Grade 4 or 5 adverse events
treatment-emergent hyperglycemia, patients ([1]; human, in vivo): 6.8%
TGI ([2]; 1 mg/kg IP QW): 79% and 81%
TGI ([2]; 3 mg/kg IP QW): 94% and 96%
TGI ([2]; 10 mg/kg IP QW): 95% and 92%
TGI (HN009 HNSCC PDX; 3 mg/kg IP QW): 91%
tumor regression (HN009 HNSCC PDX; 10 mg/kg IP QW): 17% regression
